Reference: patent publication US6265617A, “Process for the preparation of 3,5,5-trimethylcyclohexa-3-en-1-one (β-isophorone) by isomerization of 3,5,5- trimethylcyclohexa-2-en-1-one (α-isophorone)” (Degussa-Huls Aktiengesellschaft, priority 1998, dated 2001)

Test: Catalyst activity in liquid-phase isomerization of α-isophorone to β-isophorone
Settings: for Rate of formation of β-IP: boiling point, normal pressure, 25 vol.% withdrawal
Excerpt: The apparatus for carrying out the isomerization consists of a mushroom-shaped heater, an isomerization flask with attached distillation column, through which a primary mixture composed of α-IP and β-IP is withdrawn, and a pump for recirculating the unreacted α-isophorone left after the purifying distillation of β-IP. […] The suspension is heated to boiling point at normal pressure and the quantity of the α-IP delivered by a Telab pump is coordinated with the quantity of the distillate withdrawn.
The primary distillate obtained is conveyed to a distillation column operating at a partial vacuum of 5 mbar to 100 mbar. […] The bottom product consisting of unreacted α-isophorone is returned to the isomerization reactor.
(§1) Technical sodium hydroxide in various concentrations is stirred into α-IP in the apparatus already described above. With the identical continuous procedure (see Example 1), at the top of the isomerization unit a withdrawal rate of 25 vol.% of a primary distillate is established, based on the quantity of isomerization and the reflux ratio.
as §1, with “potassium carbonate” for “sodium hydroxide”
Various catalysts containing alkali-metal cations are compared with regard to their catalytic activity during the isomerization under conditions corresponding to those in the previous Examples.
Various alkali-metal bases and alkaline-earth bases used as catalysts are compared with regard to their catalytic activity during the isomerization under conditions corresponding to those in the previous Examples.
Various catalysts containing alkali-metal cations and the elements are compared with regard to their catalytic activity during the isomerization under conditions corresponding to those in the previous Examples.

[1] = 2 × 10^-2 mol.% catalyst per mol α-IP
[2] = 2 × 10^-0 mol.% catalyst per mol α-IP
[3] = 0.2 mmol K2CO3 for 1 mol α-IP, illustrative calculation
[4] = 2 × 10^-1 mol.% catalyst per mol α-IP

Row | Compound | Rate of formation of β-IP [1] [g β-IP/h/liter α-IP] | also measured
1 | [BH4-].[Li+] [LiBH4] | 46.1 | –
2 | O=C(O)O [KHCO3] | 64.4 | –
3 | [AlH4-].[Li+] [LiAIH4] | 43.3 | –
4 | O=C(O)O [Li2 CO3] | 48.3 | –
5 | O=S(=O)([O-])O.[K+] [kHSO4] | 44.7 | –
6 | [K+].[OH-] [KOH] | 66.9 | –
7 | [Li+].[OH-] [LiOH] | 61.3 | –
8 | CC(=O)O [Na(CH3 CO2)] | 49.2 | –
9 | O=C(O)O [Na2 CO3, sodium carbonate] | 47.4 | calculated yield based on the quantity of catalyst used, Yβ-IP (0.2 mol.% catalyst, continuous operation): 229.7 kg β-IP/h/kgcat.; space-time yield (per hour and quantity of catalyst used) Y (1 mol.% catalyst): 15.357 kg β-IP/h/kg catalyst; space-time yield YR-Z based on α-IP used (1 mol.% catalyst): 0.086 kg β-IP/h/liter; Rate of formation of β-IP [2]: 72 g β-IP/h/liter α-IP
10 | [Ca+2].[OH-].[OH-] [Ca(OH)2] | 41.1 | –
11 | O=C(O)O [K2 CO3, potassium carbonate] | 73.8 | improved space-time yield YR-Z based on the volume of the educt solution used: 80 g β-IP/h per kg α-IP; conversion, β-isophorone per kg of catalyst used and per hour [3]: approximately 422.15 kg; β-IP formation [3]: 74 g β-IP/h/liter; β-IP formation per kg solution [3]: 80.43 g β-IP/h/kg solution; Rate of formation of β-IP [2]: 68.8 g β-IP/h/liter α-IP; Rate of formation of β-IP [4]: 76.4 g β-IP/h/liter α-IP
12 | O=C(O)O [NaHCO3] | 55.1 | –
13 | [Na+].[OH-] [NaOH, sodium hydroxide] | 54.6 | Rate of formation of β-IP [4]: 79.5 g β-IP/h/liter α-IP
14 | [Mg+2].[OH-].[OH-] [Mg(OH)2] | 8.2 | Rate of formation of β-IP [4]: 9.3 g β-IP/h/liter α-IP
15 | CO [Na(OMe)] | 46.9 | –
16 | [Na] [Na] | 53.7 | –
17 | [H-].[Na+] [NaH] | 58.6 | –
18 | [NH2-].[Na+] [NaNH2, sodium amide] | 49.6 | –
